We go through 2 molecules from ChEMBL document CHEMBL3421625, “Discovery and optimization of novel antagonists to the human neurokinin-3 receptor for the treatment of sex-hormone disorders (Part I)” (J Med Chem, 2015).

Each structure is given as a SMILES string. Values after ≈ are worked out from the molar mass of the structure shown. Some results are limits rather than exact numbers.

A word on the logD: it is the decadic logarithm of the distribution of all forms, ionised or not, between an organic phase and buffer at a given pH. For orientation: thermodynamic solubility means the concentration in solution at equilibrium with solid. By IC50 is commonly meant the point on the concentration scale where inhibition reaches its midpoint. The term inhibition denotes the share of the control response that was lost under treatment. A low value points to little suppression. As usually defined, the fraction unbound is free concentration divided by total concentration. The clearance is a measure of how efficiently the substance is removed, as volume per time. The low end stands for a low capacity for elimination, the high end for a high capacity for elimination. Broadly, the Ki is the equilibrium dissociation constant of an inhibitor or competing ligand from its target. Higher therefore signals lower affinity. Broadly, the Vd is a proportionality between amount in the body and measured concentration, not a real space. A higher Vd goes with extensive tissue distribution. Broadly, the Tmax is the time at which the peak concentration occurs.

Series [1] is described as follows: Lipophilicity, log D of the compound at pH 7.4. The following applies: buffer. It counts as physicochemical.
Series [2] in a line: Solubility of the compound in PBS buffer at pH 7.4 by shake-flask method. It is filed as physicochemical.
The target in the next series is Cytochrome P450 3A4 (Homo sapiens, UniProt P08684). As to the kind of experiment: Inhibition of CYP3A4 (unknown origin) by luciferase reporter assay in presence of NADPH regeneration system. It is filed as ADME. On the technique in general: A reporter such as luciferase makes a cellular process visible.
Cytochrome P450 3A4, sequence (P08684 whole entry): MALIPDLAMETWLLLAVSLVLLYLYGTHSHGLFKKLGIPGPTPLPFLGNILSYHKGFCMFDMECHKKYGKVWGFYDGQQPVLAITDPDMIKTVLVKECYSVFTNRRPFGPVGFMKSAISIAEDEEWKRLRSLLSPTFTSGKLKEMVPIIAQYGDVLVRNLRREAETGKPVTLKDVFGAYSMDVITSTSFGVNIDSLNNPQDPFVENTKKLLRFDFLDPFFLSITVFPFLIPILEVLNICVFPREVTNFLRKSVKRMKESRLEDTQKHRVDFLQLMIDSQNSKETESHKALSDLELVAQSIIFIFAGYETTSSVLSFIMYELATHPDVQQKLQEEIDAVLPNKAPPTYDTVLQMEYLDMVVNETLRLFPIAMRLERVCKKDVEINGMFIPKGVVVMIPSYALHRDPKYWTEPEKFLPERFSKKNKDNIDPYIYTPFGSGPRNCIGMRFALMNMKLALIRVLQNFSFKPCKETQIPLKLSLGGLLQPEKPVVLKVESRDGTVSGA
A further series addresses Cytochrome P450 2D6 (Homo sapiens, UniProt P10635). Description: Inhibition of CYP2D6 (unknown origin) by luciferase reporter assay in presence of NADPH regeneration system. It counts as ADME.
Another series addresses Cytochrome P450 2C9 (Homo sapiens, UniProt P11712). Description: Inhibition of CYP2C9 (unknown origin) by luciferase reporter assay in presence of NADPH regeneration system. It is filed as ADME.
The target of a further series is Cytochrome P450 2C19 (Homo sapiens, UniProt P33261). As to the kind of experiment: Inhibition of CYP2C19 (unknown origin) by luciferase reporter assay in presence of NADPH regeneration system.
Cytochrome P450 2C19, sequence (P33261 whole entry): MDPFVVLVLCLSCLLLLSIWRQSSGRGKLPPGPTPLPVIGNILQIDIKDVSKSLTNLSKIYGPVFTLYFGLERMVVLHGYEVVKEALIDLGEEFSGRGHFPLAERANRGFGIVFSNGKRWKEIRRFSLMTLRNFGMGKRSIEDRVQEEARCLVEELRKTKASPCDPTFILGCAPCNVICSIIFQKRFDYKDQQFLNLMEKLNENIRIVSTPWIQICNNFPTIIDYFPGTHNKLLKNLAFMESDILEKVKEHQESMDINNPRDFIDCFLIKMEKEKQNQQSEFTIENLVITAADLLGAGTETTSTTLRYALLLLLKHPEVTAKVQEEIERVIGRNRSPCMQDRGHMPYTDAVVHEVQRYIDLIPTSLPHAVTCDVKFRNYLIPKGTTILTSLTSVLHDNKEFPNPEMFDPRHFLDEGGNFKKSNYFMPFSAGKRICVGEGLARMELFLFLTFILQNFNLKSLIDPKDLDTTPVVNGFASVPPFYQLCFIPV
The next series addresses T1, Cytochrome P450 1A2 (Homo sapiens, UniProt P05177).
T1 sequence (P05177 whole entry): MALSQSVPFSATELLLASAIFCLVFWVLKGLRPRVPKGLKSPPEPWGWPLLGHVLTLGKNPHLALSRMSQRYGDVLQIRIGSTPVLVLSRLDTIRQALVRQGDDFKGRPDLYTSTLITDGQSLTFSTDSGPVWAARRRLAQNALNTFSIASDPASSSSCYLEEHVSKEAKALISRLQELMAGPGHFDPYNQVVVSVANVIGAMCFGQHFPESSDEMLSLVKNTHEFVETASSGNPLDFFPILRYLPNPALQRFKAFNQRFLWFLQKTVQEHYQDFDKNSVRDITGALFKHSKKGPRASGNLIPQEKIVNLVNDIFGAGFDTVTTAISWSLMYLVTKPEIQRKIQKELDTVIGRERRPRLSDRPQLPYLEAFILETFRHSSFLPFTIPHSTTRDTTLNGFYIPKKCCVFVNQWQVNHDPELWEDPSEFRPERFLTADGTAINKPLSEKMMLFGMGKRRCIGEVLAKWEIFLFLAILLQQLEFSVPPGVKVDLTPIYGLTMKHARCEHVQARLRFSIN
Description: Inhibition of CYP1A2 (unknown origin) by luciferase reporter assay in presence of NADPH regeneration system. It counts as ADME.

Series [3] deals with T2, Gonadotropin-releasing hormone receptor (Homo sapiens) (UniProt P30968).
T2 sequence (whole entry): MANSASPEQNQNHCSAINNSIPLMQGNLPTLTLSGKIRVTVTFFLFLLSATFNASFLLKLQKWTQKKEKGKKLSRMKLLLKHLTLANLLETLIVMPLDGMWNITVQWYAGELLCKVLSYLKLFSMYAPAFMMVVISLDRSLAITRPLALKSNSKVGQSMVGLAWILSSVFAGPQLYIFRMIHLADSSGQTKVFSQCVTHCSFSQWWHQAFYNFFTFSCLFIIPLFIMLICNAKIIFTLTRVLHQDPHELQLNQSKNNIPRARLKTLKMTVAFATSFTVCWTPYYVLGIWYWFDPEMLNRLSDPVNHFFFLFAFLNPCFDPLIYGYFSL
Description: Inhibition of GnRH-R (unknown origin) at 10 uM relative to control.

Series [4] in a line: Fraction unbound in rat plasma at 5 uM after 4 hrs by equilibrium dialysis method. It counts as ADME, cell-free. For orientation: In equilibrium dialysis only unbound substance equilibrates across the membrane.
Series [5] is described as follows: Total systemic clearance in Sprague-Dawley rat at 1 mg/kg, iv by LC-MS/MS analysis. It counts as ADME, organism-based. Set-up: dose 1 mg/kg, route intravenous. The following applies: in vivo.
The test system of series [6] is Rattus norvegicus. Description: Unbound AUC in Sprague-Dawley rat at 1 mg/kg, iv by LC-MS/MS analysis. It is filed as ADME, organism-based. Set-up: dose 1 mg/kg, route intravenous. The conditions noted are these: in vivo.
For series [7], the system named is Rattus norvegicus. As to the kind of experiment: Unbound AUC in Sprague-Dawley rat at 3 mg/kg, po by LC-MS/MS analysis. It is filed as ADME, organism-based. Further details: dose 3 mg/kg, route oral; call rule not given here. The conditions noted are these: in vivo.
Series [8] concerns Rattus norvegicus. As to the kind of experiment: Unbound Cmax in Sprague-Dawley rat at 3 mg/kg, po by LC-MS/MS analysis. It counts as ADME, organism-based. Set-up: dose 3 mg/kg, route oral. The conditions noted are these: in vivo.
The nature of series [9]: Fraction unbound in rat brain at 5 uM after 4 hrs by equilibrium dialysis method. It counts as ADME, tissue-based.
The nature of series [10]: Ratio of unbound drug level in brain to plasma in Sprague-Dawley rat at 1 mg/kg, iv measured at 10 mins. The following applies: brain and plasma.
Series [11] is described as follows: Ratio of unbound drug level in brain to plasma in Sprague-Dawley rat at 1 mg/kg, iv measured at 60 mins. The following applies: brain and plasma.
Series [12] relates to Rattus norvegicus. As to the kind of experiment: Hepatotoxicity in Sprague-Dawley rat assessed as effect on ALT level at 30 mg/kg, po bid administered for 5 days. It is filed as toxicity, organism-based. Further details: dose 30 mg/kg, route oral. The following applies: in vivo, 120 h.
Series [13] concerns Rattus norvegicus. Description: Drug uptake in Sprague-Dawley rat at 30 mg/kg, po bid administered for 5 days. It counts as ADME, organism-based. Further details: dose 30 mg/kg, route oral. The following applies: in vivo, 120 h.
In the next series the target is T3, NK-3 receptor (Macaca mulatta, UniProt Q2WGM0).
T3 sequence (Q2WGM0 whole entry): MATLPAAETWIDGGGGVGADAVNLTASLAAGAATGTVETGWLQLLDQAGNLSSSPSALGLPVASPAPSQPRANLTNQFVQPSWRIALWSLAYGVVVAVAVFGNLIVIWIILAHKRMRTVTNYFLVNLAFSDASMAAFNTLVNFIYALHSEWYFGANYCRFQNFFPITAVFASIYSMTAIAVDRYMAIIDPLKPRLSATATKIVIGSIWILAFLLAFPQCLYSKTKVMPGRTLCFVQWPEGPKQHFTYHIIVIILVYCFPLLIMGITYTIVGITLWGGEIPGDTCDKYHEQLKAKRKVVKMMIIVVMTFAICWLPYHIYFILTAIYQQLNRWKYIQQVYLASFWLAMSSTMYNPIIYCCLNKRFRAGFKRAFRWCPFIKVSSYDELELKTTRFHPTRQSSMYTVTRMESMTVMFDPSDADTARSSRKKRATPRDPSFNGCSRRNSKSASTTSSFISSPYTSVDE

Another series addresses T4, Neuromedin-K receptor (Rattus norvegicus, UniProt P16177).
T4 sequence (P16177 whole entry): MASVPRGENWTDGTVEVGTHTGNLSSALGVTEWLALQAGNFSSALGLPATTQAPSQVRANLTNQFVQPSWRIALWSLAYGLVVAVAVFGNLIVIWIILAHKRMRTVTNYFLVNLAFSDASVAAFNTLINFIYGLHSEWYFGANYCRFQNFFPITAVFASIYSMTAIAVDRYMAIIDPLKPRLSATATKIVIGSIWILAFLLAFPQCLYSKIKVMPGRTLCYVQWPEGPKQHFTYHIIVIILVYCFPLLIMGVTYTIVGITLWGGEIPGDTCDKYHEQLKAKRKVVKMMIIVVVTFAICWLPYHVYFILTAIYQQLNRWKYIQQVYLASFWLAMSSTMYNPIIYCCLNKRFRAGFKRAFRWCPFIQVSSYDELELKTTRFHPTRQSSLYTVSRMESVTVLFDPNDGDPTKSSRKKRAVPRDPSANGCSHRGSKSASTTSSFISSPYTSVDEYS

Series [14] in a line: in vivo. The following applies: Sprague-Dawley, rat, iv, 1 mg/kg.
Description: Volume of distribution at steady state in Sprague-Dawley rat at 1 mg/kg, iv by LC-MS/MS analysis
The nature of series [15]: in vivo. The following applies: Sprague-Dawley, rat, po, 3 mg/kg.

Cytochrome P450 2D6, sequence (P10635 whole entry): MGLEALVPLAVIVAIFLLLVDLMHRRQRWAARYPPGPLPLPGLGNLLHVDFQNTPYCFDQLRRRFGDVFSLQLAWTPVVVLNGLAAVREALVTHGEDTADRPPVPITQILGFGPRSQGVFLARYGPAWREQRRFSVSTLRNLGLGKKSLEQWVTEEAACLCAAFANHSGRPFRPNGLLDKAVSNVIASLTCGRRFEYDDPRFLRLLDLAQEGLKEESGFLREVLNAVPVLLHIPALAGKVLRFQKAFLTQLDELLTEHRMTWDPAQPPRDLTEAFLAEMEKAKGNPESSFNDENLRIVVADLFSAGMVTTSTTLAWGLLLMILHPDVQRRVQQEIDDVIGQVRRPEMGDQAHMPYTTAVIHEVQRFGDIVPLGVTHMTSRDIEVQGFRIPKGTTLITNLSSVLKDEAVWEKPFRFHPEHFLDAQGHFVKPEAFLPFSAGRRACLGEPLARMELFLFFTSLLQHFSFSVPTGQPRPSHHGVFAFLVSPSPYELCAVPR
Cytochrome P450 2C9, sequence (P11712 whole entry): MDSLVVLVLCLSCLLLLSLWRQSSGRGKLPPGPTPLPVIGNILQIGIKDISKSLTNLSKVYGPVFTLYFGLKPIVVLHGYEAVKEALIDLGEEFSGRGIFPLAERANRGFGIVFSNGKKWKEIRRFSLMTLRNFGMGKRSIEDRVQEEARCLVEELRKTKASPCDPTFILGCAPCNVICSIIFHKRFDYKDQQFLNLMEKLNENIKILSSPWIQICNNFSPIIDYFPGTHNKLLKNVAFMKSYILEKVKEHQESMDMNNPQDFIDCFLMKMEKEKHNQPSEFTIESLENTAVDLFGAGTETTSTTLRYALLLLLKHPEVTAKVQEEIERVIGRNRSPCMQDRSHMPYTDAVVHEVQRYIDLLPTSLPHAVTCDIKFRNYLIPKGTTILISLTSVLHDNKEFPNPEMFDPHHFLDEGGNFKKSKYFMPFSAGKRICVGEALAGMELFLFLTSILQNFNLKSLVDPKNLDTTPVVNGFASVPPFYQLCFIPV
Description for NK-3 receptor: Displacement of [3H]-SB222200 from monkey NK3R after 90 mins by scintillation counting analysis
Description for Neuromedin-K receptor: Displacement of [3H]-SB222200 from rat NK3R after 90 mins by scintillation counting analysis

Turning to `Cc1nc(-c2nnc3n2CCN(C(=O)c2ccc(-c4cccs4)cc2)[C@@H]3C)cs1`, the logD in series [1] (read-out: logD) is 3.1. For the same molecule, the solubility (thermodynamic) in series [2] came to 118 µM (≈ 49.7 µg/mL). For the same molecule, the IC50 at Cytochrome P450 3A4 is 50 µM; at Cytochrome P450 2D6, above 100 µM; at Cytochrome P450 2C9 it was 21 µM; on Cytochrome P450 2C19, 34 µM; at Cytochrome P450 1A2, 26 µM. The inhibition in series [3] was 30%. For the same molecule, the fraction unbound at 4 h, 5 µM in [4] came to 0.055; in [9], 0.028. This molecule also registered a clearance in series [5] of 7.4 mL/min/kg. Further, the fAUC in the series with Rattus norvegicus [6] is 16.9 µM·min; in the series with Rattus norvegicus [7], 60.3 µM·min. In the series with Rattus norvegicus [8], this molecule yielded a fCmax of 443 nM. The Kp uu at 10 min in series [10] amounted to 0.2. In addition, the Kp uu at 1 h in series [11] was 0.1. Moreover, the Activity result with Rattus norvegicus [12] is recorded as “Non-toxic”. The Drug uptake entry in the series with Rattus norvegicus [13] is reported as “Not Active”. For the same molecule, the figures for the Ki on NK-3 receptor and at Neuromedin-K receptor were 0.02 µM and 0.076 µM, respectively. Moreover, the Vd in “in vivo [14]” stood at 1.4 L/kg. For the same molecule, the Tmax in the series “in vivo [15]” was 45 min.
Take `C[C@@H]1c2nnc(-c3csc(-c4ccc(F)cc4F)n3)n2CCN1C(=O)c1ccc(-c2cccs2)cc1`: the logD in series [1] was determined as 5. The molecule further came in with a thermodynamic solubility in series [2] of 0.4 µM (≈ 0.208 µg/mL). In addition, the half-maximal inhibitory concentration (IC50) at Cytochrome P450 3A4 worked out at 19 µM; on Cytochrome P450 2D6, 7 µM; on Cytochrome P450 2C9 it was 3 µM; on Cytochrome P450 2C19, 4 µM; on Cytochrome P450 1A2, 21 µM. The inhibition in [3] worked out at 35%. In addition, the results for the fraction unbound at 4 h, 5 µM in series [4] and in series [9] were 0.0008 and 0.001, respectively. This molecule also registered a clearance in series [5] of 8.9 mL/min/kg. In addition, the fAUC was 0.2 µM·min with Rattus norvegicus [6] and 0.1 µM·min in the series with Rattus norvegicus [7]. The molecule further had a fCmax in the series with Rattus norvegicus [8] of 0.14 nM. In addition, in series [10], the Kp uu at 10 min came to 1.9. The Kp uu at 1 h in [11] was 2.5. For the same molecule, the Ki at NK-3 receptor is 0.00398 µM; at Neuromedin-K receptor, 0.013 µM. In “in vivo [14]”, the Vd was 4.1 L/kg. Further, the time to peak (Tmax) in the series “in vivo [15]” was 45 min.
